Test results published in PubChem BioAssay AID248 (DTP/NCI, 2004).
Several values for one entry are separate records, joined by “and”; a condition that tells them apart may be missing. Equal entries are not always repeated. Toxic doses and inconclusive results are not listed.

Tested on: L1210 leukemia ip in BDF1 mice, survival T/C
Test: NCI In Vivo Anticancer Drug Screen. Data for tumor model L1210 Leukemia (intraperitoneal) in B6D2F1 (BDF1) mice
Conditions: endpoint: mean survival time, higher = longer survival
How it was run: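 Antitumor effect is assessed in tumor-bearing animals. Survival in the compound arm is compared with a vehicle-dosed control arm and expressed as their quotient.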

[1] = dose: 200.0 mg/kg/injection, schedule: Q01DX009 (ip), vehicle: saline with Tween-80
[2] = dose: 400.0 mg/kg/injection, schedule: Q01DX009 (ip), vehicle: saline with Tween-80
[3] = dose: 100.0 mg/kg/injection, schedule: Q04DX003 (ip), vehicle: Klucel (hydroxypropylcellulose) (HPC)
[4] = dose: 200.0 mg/kg/injection, schedule: Q04DX003 (ip), vehicle: Klucel (hydroxypropylcellulose) (HPC)
[5] = dose: 400.0 mg/kg/injection, schedule: Q04DX003 (ip), vehicle: Klucel (hydroxypropylcellulose) (HPC)
[6] = dose: 100.0 mg/kg/injection, schedule: Q04DX003 (ip), vehicle: saline with Tween-80
[7] = dose: 200.0 mg/kg/injection, schedule: Q04DX003 (ip), vehicle: saline with Tween-80
[8] = dose: 100.0 mg/kg/injection, schedule: Q01DX001 (ip), vehicle: carboxymethylcellulose (CMC)
[9] = dose: 200.0 mg/kg/injection, schedule: Q01DX001 (ip), vehicle: carboxymethylcellulose (CMC)
[10] = dose: 400.0 mg/kg/injection, schedule: Q01DX001 (ip), vehicle: carboxymethylcellulose (CMC)

O=C(Nc1ccccc1F)Oc1ccc(C2CCCCC2)cc1
T/C (dose: 100.0 mg/kg/injection, schedule: Q01DX009 (ip), vehicle: saline with Tween-80): 104 % of control | T/C [1]: 104 % of control | T/C [2]: 101 % of control

O=C1c2ccccc2C(=O)C1(Br)C(Cl)c1ccccc1 (stereo not given)
T/C (dose: 100.0 mg/kg/injection, schedule: Q01DX009 (ip), vehicle: Klucel (hydroxypropylcellulose) (HPC)): 95 % of control | T/C [3]: 96 % of control | T/C (dose: 200.0 mg/kg/injection, schedule: Q01DX009 (ip), vehicle: Klucel (hydroxypropylcellulose) (HPC)): 101 % of control | T/C [4]: 103 % of control | T/C (dose: 400.0 mg/kg/injection, schedule: Q01DX009 (ip), vehicle: Klucel (hydroxypropylcellulose) (HPC)): 97 % of control | T/C [5]: 97 % of control

CCCCC#CC(=O)OCCC
T/C [6]: 94 % of control | T/C [7]: 99 % of control

Cc1ccc(S(=O)(=O)N2Cc3ccc([N+](=O)[O-])cc3C2)cc1
T/C [8]: 100 % of control | T/C [9]: 102 % of control | T/C [10]: 105 % of control

CCCCN(C)N=Nc1ccc([N+](=O)[O-])cc1C(N)=O
T/C (dose: 100.0 mg/kg/injection, schedule: Q01DX001 (ip), vehicle: other): 100 % of control | T/C [6]: 110 % of control | T/C (dose: 200.0 mg/kg/injection, schedule: Q01DX001 (ip), vehicle: other): 105 % of control | T/C [1]: 122 % of control | T/C [7]: 109 % of control | T/C (dose: 266.0 mg/kg/injection, schedule: Q01DX009 (ip), vehicle: saline with Tween-80): 160 % of control | T/C (dose: 400.0 mg/kg/injection, schedule: Q01DX001 (ip), vehicle: other): 110 % of control | T/C [2]: 165 % of control and 170 % of control | T/C (dose: 400.0 mg/kg/injection, schedule: Q04DX003 (ip), vehicle: saline with Tween-80): 115 % of control | T/C (dose: 600.0 mg/kg/injection, schedule: Q01DX009 (ip), vehicle: saline with Tween-80): 200 % of control

COC(=O)C(CCSC)NC(=O)C(C)NC(=O)c1cnc2ccccc2n1 (stereo not given)
T/C [8]: 91 % of control | T/C [9]: 94 % of control | T/C [10]: 98 % of control

CCNC(=O)c1c2ccccc2nc2c1c(C)c(C)c1ccccc12
T/C [3]: 108 % of control | T/C [4]: 112 % of control | T/C [5]: 106 % of control

O=c1n(C2OC(CO)C(O)C2O)ccc2nccn12 (stereo not given)
T/C (dose: 2.5 mg/kg/injection, schedule: Q01DX009 (ip), vehicle: saline): 98 % of control | T/C (dose: 3.13 mg/kg/injection, schedule: Q03HX024 (ip), vehicle: saline): 98 % of control | T/C (dose: 5.0 mg/kg/injection, schedule: Q01DX009 (ip), vehicle: saline): 95 % of control | T/C (dose: 6.25 mg/kg/injection, schedule: Q03HX024 (ip), vehicle: saline): 96 % of control | T/C (dose: 10.0 mg/kg/injection, schedule: Q01DX009 (ip), vehicle: saline): 98 % of control | T/C (dose: 12.5 mg/kg/injection, schedule: Q03HX024 (ip), vehicle: saline): 100 % of control | T/C (dose: 20.0 mg/kg/injection, schedule: Q01DX009 (ip), vehicle: saline): 106 % of control | T/C (dose: 25.0 mg/kg/injection, schedule: Q03HX024 (ip), vehicle: saline): 100 % of control | T/C (dose: 40.0 mg/kg/injection, schedule: Q01DX009 (ip), vehicle: saline): 101 % of control | T/C (dose: 50.0 mg/kg/injection, schedule: Q01DX005 (ip), vehicle: saline): 95 % of control | T/C (dose: 50.0 mg/kg/injection, schedule: Q03HX024 (ip), vehicle: saline): 122 % of control | T/C (dose: 100.0 mg/kg/injection, schedule: Q01DX005 (ip), vehicle: saline): 103 % of control | T/C (dose: 200.0 mg/kg/injection, schedule: Q01DX005 (ip), vehicle: saline): 92 % of control | T/C (dose: 400.0 mg/kg/injection, schedule: Q01DX005 (ip), vehicle: saline): 94 % of control

N#CC(C#N)=Cc1c2ccccc2cc2ccccc12
T/C [3]: 94 % of control | T/C [4]: 91 % of control | T/C [5]: 112 % of control

Cc1ccc2cccc(O)c2n1
T/C (dose: 12.5 mg/kg/injection, schedule: Q04DX002 (ip), vehicle: Klucel (hydroxypropylcellulose) (HPC)): 94 % of control | T/C (dose: 25.0 mg/kg/injection, schedule: Q04DX002 (ip), vehicle: Klucel (hydroxypropylcellulose) (HPC)): 88 % of control | T/C (dose: 50.0 mg/kg/injection, schedule: Q04DX002 (ip), vehicle: Klucel (hydroxypropylcellulose) (HPC)): 102 % of control
